Key:
C57BL/6J mice [1] = test: Head twitch response; format: in vivo, mouse; conditions: for ED50, nmol/kg (95% CI) / ED50, μg/kg (95% CI): IP
human subjects = conditions: cited from earlier work
C57BL/6J mice [2] = conditions: HTR under equivalent conditions; ref Halberstadt and Geyer 2013; cited from earlier work
α2-adrenoceptors = conditions: [3H]clonidine, rat cortex; ref Leysen 1989; Marona-Lewicka and Nichols 1995; cited from earlier work
[125I]DOI-labeled sites [3] = read-out: Ki at [125I]DOI-labeled sites; ref Huang et al. 1994; cited from earlier work
β2 = conditions: ref Nichols et al. 2002; cited from earlier work
[4] = tested on: rats trained to discriminate saline from LSD; conditions: rat drug discrimination; ref Huang et al. 1994; cited from earlier work
β1 = conditions: ref Nichols et al. 2002; cited from earlier work
H1 receptors = conditions: ref Nichols et al. 2002; Rickli et al. 2015; cited from earlier work
[125I]DOI-labeled sites [5] = Binding to [125I]DOI-labeled sites; parameters: species or system rat; conditions: from Ki values of Huang et al. 1994
[6] = tested on: 5-HT2A sites labeled with [3H]ketanserin; conditions: rat frontal cortex / forebrain homogenate; ref Huang et al. 1994; cited from earlier work
[7] = first 20-min of the test session

For `CCCN(C)C(=O)[C@@H]1C=C2c3cccc4[nH]cc(c34)C[C@H]2N(C)C1` [LAMPA, N-methyl-N-propyl lysergamide], the “HTR Counts (Mean ± SEM)” value (C57BL/6J mice [1]; 0.1 mg/kg IP, 20 min) was 15.8 ± 2.7, the “HTR Counts (Mean ± SEM)” value (C57BL/6J mice [1]; 0.3 mg/kg IP, 20 min) was 31.0 ± 2.2 and the “HTR Counts (Mean ± SEM)” value (C57BL/6J mice [1]; 1 mg/kg IP, 20 min) was 19.5 ± 3.2. The “HTR Counts (Mean ± SEM)” value (C57BL/6J mice [1]; 3 mg/kg IP, 20 min) was 7.4 ± 4.3, the “ED50, nmol/kg (95% CI)” value (C57BL/6J mice [1]; [7]) was 358.3 (241.1–532.4) nmol/kg and the “ED50, μg/kg (95% CI)” value (C57BL/6J mice [1]; [7]) was 115.9 (78.0–172.2) μg/kg. The “effect in hallucinogen-experienced subjects” value (human subjects; 100 μg p.o., six subjects, ref Abramson and Rolo 1967) was “no effect in four subjects and produced effects consistent with a threshold dose of LSD in two subjects”.

For `CCN(CC)C(=O)[C@@H]1C=C2c3cccc4[nH]cc(c34)C[C@H]2N(C)C1` [LSD, (+)-Lysergic acid diethylamide], the ED50 (C57BL/6J mice [2]) is given as 132.8 nmol/kg, the typical oral doses (human subjects; oral, humans, ref Shulgin and Shulgin 1997) is given as 60 to 200 µg and the Ki (α2-adrenoceptors) is given as 37 to 82 nM. For the same molecule, the Ki ([125I]DOI-labeled sites [3]) was 1.43 nM, the Ki (β2) was 740 nM and the “potency in rats trained to discriminate saline from LSD” value [4] was 0.021 mg/kg. For the same molecule, the Ki (β1) was 140 nM and the Ki (H1 receptors) was 1100 to 1500 nM.

For `CC(C)N(C)C(=O)[C@@H]1C=C2c3cccc4[nH]cc(c34)C[C@H]2N(C)C1` [MIPLA, N-methyl-N-isopropyl lysergamide], the “HTR Counts (Mean ± SEM)” value (C57BL/6J mice [1]; 0.1 mg/kg IP, 30 min) was 12.3 ± 1.1, the “HTR Counts (Mean ± SEM)” value (C57BL/6J mice [1]; 0.2 mg/kg IP, 30 min) was 31.8 ± 1.9 and the “HTR Counts (Mean ± SEM)” value (C57BL/6J mice [1]; 0.4 mg/kg IP, 30 min) was 26.6 ± 3.1. The “ED50, nmol/kg (95% CI)” value (C57BL/6J mice [1]; entire 30-min test session) was 421.7 (360.5–493.1) nmol/kg, the “ED50, μg/kg (95% CI)” value (C57BL/6J mice [1]; entire 30-min test session) was 136.4 (116.6–159.5) μg/kg and the “affinity relative to LSD at [125I]DOI-labeled sites” value ([125I]DOI-labeled sites [5]) was “about 82%”. For the same molecule, the “doses producing LSD-like psychedelic effects” value (human subjects; human subjects, ref Shulgin 2016) was 180 to 300 µg, the “potency as a psychedelic in man relative to LSD” value (human subjects; ref Shulgin 2016) was “one-third” and the Ki ([125I]DOI-labeled sites [3]) was 1.75 nM. For the same molecule, the “fold lower affinity than LSD at [3H]ketanserin-labeled 5-HT2A sites” value [6] was 6 fold and the “potency in rats trained to discriminate saline from LSD” value [4] was 0.036 mg/kg.

From article PMC6848745 (Psychopharmacology, 2018)
